Experimental data published in patent publication US5283321A (priority 1986, dated 1994).
Peptide text beside a SMILES is read from it.

Tests used:
antibodies in human sera = assay: ELISA, reaction between the synthetic peptide (BSA-coupled coating antigen) and antibodies in human sera; assay type: binding; settings: swine anti-human conjugate 1/100, plates read after 20 min, peptide coupled to BSA as coating antigen
[1] = system: antibodies in rabbit sera; assay: ELISA, reaction between the synthetic peptide (BSA-coupled coating antigen) and antibodies in rabbit sera; assay type: binding; settings: goat anti-rabbit conjugate 1/500, plates read after 3 min, peptide coupled to BSA as coating antigen
[2] = system: spleen cells from a NMRI mouse; assay: LAF assay, lymphocyte or thymocyte proliferating activity (3H-thymidine incorporation); assay type: cell-based; settings: 48 h + 16 h with 3H-thymidine
purified pertussis toxin [3] = assay: Immunization of mice with the synthetic peptide, ELISA of sera against native pertussis toxin; assay type: in vivo, mice (NMRI); settings: sera two months after third dose
alkaline phosphatase = assay: Similar ELISA experiment where enzyme alone was used; assay type: binding; settings: enzyme alone instead of conjugate
Description: That the synthesized peptide reacted with and bound to the respective conjugate was further shown by the ability of the conjugates alone to bind the peptide.

purified pertussis toxin [4] = assay: Challenge of immunized mice with purified pertussis toxin, survival; assay type: in vivo, mice (NMRI); settings: challenge 20 μg/mouse=5×LD50
[5] = system: alkaline phosphatase goat anti-rabbit Ig conjugate; assay: ELISA, reaction between the synthetic peptide and conjugate only (goat anti-rabbit); assay type: binding; settings: no serum, plates read after 5 min
Protocol: (§1) The above synthesized peptide was coupled to a carrier, i.e. bovine serum albumin (BSA) in the following manner to form a peptide antigen (coating antigen) which was used in ELISA.
(§2) Fractions containing coupled material were pooled and the pooled material was used in ELISA as coating antigen and was added directly, without any previous dilution, to the microplate.
(§3) PERFORMANCE 1. Coating of microplates. Microplates were incubated with 0.1 ml of antigen in PBS at room temperature (20°-25° C.) over night.
(§4) 2. Incubation with bovine serum albumin (BSA) and serum. The plates were washed four times and then incubated with 0.1 ml of 1% (w/v) BSA in PBS at 37° C. for one hour. After washing, 0.1 ml of serum appropriately diluted in incubation buffer, was added to the wells and the plate(s) was incubated at room temperature for one hour.
(§5) 3. Incubation with conjugate. After washing, 0.1 ml of conjugate appropiately diluted in incubation buffer, was added to the wells and the plate(s) was incubated at room temperature for two hours.
(§6) 4. After washing, 0.1 ml of the enzyme substrate solution was added to the wells. The plates were kept at room temperature and the absorbance at 405 nm was read after the time indicated below. […]
(§7) The plates were read at times indicated below in an automated ELISA-reader (Titertek, Multiscan). […]

[6] = system: alkaline phosphatase swine anti-human IgG conjugate; assay: ELISA, reaction between the synthetic peptide and conjugate only (swine anti-human); assay type: binding; settings: no serum, plates read after 13 min
Protocol: as §1, §2, §3, §4, §5, §6, §7

Molecule: CC(C)[C@H](NC(=O)[C@H](CO)NC(=O)[C@H](CCCNC(=N)N)NC(=O)[C@H](CCCNC(=N)N)NC(=O)[C@H](CO)NC(=O)[C@@H](NC(=O)[C@H](Cc1ccc(O)cc1)NC(=O)[C@@H]1CCCN1C(=O)[C@H](CC(N)=O)NC(=O)[C@@H]1CCCN1C(=O)[C@H](CC(N)=O)NC(=O)[C@H](C)NC(=O)[C@H](CCCNC(=N)N)NC(=O)[C@@H](NC(=O)[C@H](CCC(N)=O)NC(=O)[C@@H](N)CCCCN)[C@@H](C)O)[C@@H](C)O)C(=O)N[C@@H](C)C(=O)N[C@@H](CO)C(=O)O [The synthetic peptide, H--Lys--Gln--Thr--Arg--Ala--Asn--Pro--Asn--Pro--Tyr--Thr----Ser--Arg--Arg--Ser--Val--Ala--Ser--OH] (H-KQTRANPNPYTSRRSVAS-OH)
- Absorbance at 405 nm (antibodies in human sera; serum Human 1 (one individual) diluted 1/500): 1.11
- Absorbance at 405 nm (antibodies in human sera; serum Human 2 (pool of human sera) diluted 1/500): 1.26
- Absorbance at 405 nm ([1]; serum Rabbit 1 diluted 1/500): 1.21
- Absorbance at 405 nm ([1]; serum Rabbit 2 diluted 1/500): 1.05
- cpm (range of triplicates) ([2]; 1 μg per well): 3000-4200 cpm
- cpm (range of triplicates) ([2]; 10 μg per well): 7000-8500 cpm
- Mean Titre (purified pertussis toxin [3]; endpoint titre against pertussis toxin, cut off absorbance 0.1, 17 mice): 2334
- Titre Range (purified pertussis toxin [3]; endpoint titre against pertussis toxin, cut off absorbance 0.1): 320-40960
- Responders (purified pertussis toxin [3]; of 17 mice, s.c. 3×0.5 ml BSA-coupled peptide antigen on aluminium hydroxide, one month apart): 15
- Binding of the peptide to alkaline phosphatase enzyme alone (alkaline phosphatase): no binding was observed
- Days of survival (mean) (purified pertussis toxin [4]; immunized mice with endpoint titre 80-40960 (17 mice)): 3.765 days
- Days of survival (mean) (purified pertussis toxin [4]; immunized mice with endpoint titre 320-40960 (15 mice)): 4.000 days
- Days of survival (mean) (purified pertussis toxin [4]; immunized mice with endpoint titre 640-40960 (14 mice)): 3.929 days
- Days of survival (mean) (purified pertussis toxin [4]; immunized mice with endpoint titre 1280-40960 (10 mice)): 4.600 days
- Days of survival (mean) (purified pertussis toxin [4]; immunized mice with endpoint titre 2560-40960 (8 mice)): 4.875 days
- Days of survival (mean) (purified pertussis toxin [4]; immunized mice with endpoint titre 5120-40960 (6 mice)): 5.333 days
- Days of survival (mean) (purified pertussis toxin [4]; immunized mice with endpoint titre 10240-40960 (3 mice)): 6.333 days
- Absorbance at 405 nm [5]: 1.23
- Absorbance at 405 nm [6]: 0.84

Molecule: Phytohaemagglutinin [PHA]
- cpm (range of triplicates) ([2]; 2.5 μg per well): 6700-8100 cpm
- cpm (range of triplicates) ([2]; 5 μg per well): 9800-10400 cpm
- cpm (range of triplicates) ([2]; 7 μg per well): 7000-8100 cpm
